Key:
BRD4 (BDI-BDII_K57-K550) = BRD4 (BDI-BDII_K57-K550) (Homo sapiens, UniProt O60885); experiment: TR-FRET bromodomain binding assay; conditions: His-tagged tandem bromodomain, Alexa647-labeled probe; Ki calculated from IC50s, probe Kd and probe concentration
Protocol: A time-resolved fluorescence resonance energy transfer (TR-FRET) assay was used to determine the affinities of compounds of the Examples listed in Table 1 for the tandem domain of bromodomain BRD4. […] An Alexa647-labeled BET-inhibitor was used as the fluorescent probe in the assay.
TR-FRET data were normalized to the means of 24 no-compound controls (“high”) and 8 controls containing 1 μM un-labeled probe (“low”). Percent inhibition was plotted as a function of compound concentration and the data were fit with the 4 parameter logistic equation to obtain IC50s. Inhibition constants (Ki) were calculated from the IC50s, probe Kd and probe concentration. Typical Z′ values were between 0.65 and 0.75.

[1] = test system: breast cancer cell line MX-1; experiment: MX-1 cell line proliferation assay (3-day, Cell Titer Glo); type: cell-based; conditions: Homo sapiens, MX1, MX-1 cells, 72 hours, read-out: Cellular proliferation: EC50
Protocol: The impact of compounds of the Examples on cancer cell proliferation was determined using the breast cancer cell line MX-1 (ATCC) in a 3-day proliferation assay and the data are reported in Table 1. […] For compound testing, MX-1 cells were plated in 96-well black bottom plates at a density of 5000 cells/well in 90 μL of culture media and incubated at 37° overnight to allow cell adhesion and spreading. Compound dilution series were prepared in DMSO via a 3-fold serial dilution from 3 mM to 0.1 μM. The DMSO dilution series were then diluted 1:100 in phosphate buffered saline, and 10 μL of the resulted solution were added to the appropriate wells of the MX-1 cell plate. The final compound concentrations in the wells were 3, 1, 0.3, 0.1, 0.03, 0.01, 0.003, 0.001, 0.0003, and 0.0001 μM, or 1, 0.3, 0.1, 0.03, 0.01, 0.003, 0.001, 0.0003, 0.0001, and 0.00003 μM.
Luminescence readings from the Cell Titer Glo assay were normalized to the DMSO treated cells and analyzed using the GraphPad Prism software with sigmoidal curve fitting to obtain EC50s.

`Cn1cc2c(cc1=O)OCCCCc1cc(Cl)ccc1Oc1ncc(C(=O)O)cc1-2` [Example A-38, 11-chloro-2-methyl-3-oxo-2,3,6,7,8,9-hexahydrobenzo[11,12][1,6]dioxacyclododecino[2,3-b:4,5-c′]dipyridine-17-carboxylic acid] gave a Ki (BRD4 (BDI-BDII_K57-K550)) of 14.7 nM and an EC50 [1] greater than 1000 nM.
Work on `Cn1cc2c(cc1=O)OCCCCc1cc(Cl)ccc1Oc1ncc(CO)cc1-2` [Example A-39, 11-chloro-17-(hydroxymethyl)-2-methyl-6,7,8,9-tetrahydrobenzo[11,12][1,6]dioxacyclododecino[2,3-b:4,5-c′]dipyridin-3(2H)-one] yielded a Ki (BRD4 (BDI-BDII_K57-K550)) of 15.7 nM and an EC50 [1] of 173 nM.
`Cn1cc2c(cc1=O)OCCCCc1cc(Cl)ccc1Oc1ncc(CS(C)(=O)=O)cc1-2` [Example A-40, 11-chloro-2-methyl-17-((methylsulfonyl)methyl)-6,7,8,9-tetrahydrobenzo[11,12][1,6]dioxacyclododecino[2,3-b:4,5-c′]dipyridin-3(2H)-one] showed a Ki (BRD4 (BDI-BDII_K57-K550)) of 6.09 nM and an EC50 [1] of 23.7 nM.
In the case of `CCS(=O)(=O)Nc1ccc2c(c1)-c1cn(C)c(=O)cc1OCCCCc1cc(Cl)cnc1O2` [Example A-41, N-(3-chloro-12-methyl-11-oxo-5,6,7,8,11,12-hexahydrobenzo[4,5][1,6]dioxacyclododecino[7,8-b:3,2-c′]dipyridin-15-yl)ethanesulfonamide], the Ki (BRD4 (BDI-BDII_K57-K550)) is reported as 8.05 nM and the EC50 [1] is reported as 26.8 nM.
`CCS(=O)(=O)c1ccc2c(c1)-c1cn(C)c(=O)cc1OCCCCc1ccncc1O2` [Example A-42, 17-(ethylsulfonyl)-2-methyl-6,7,8,9-tetrahydrobenzo[4,5][1,6]dioxacyclododecino[3,2-c:7,8-c′]dipyridin-3(2H)-one] gave a Ki (BRD4 (BDI-BDII_K57-K550)) of 0.86 nM and an EC50 [1] of 10.2 nM.
In the case of `Cn1cc2c(cc1=O)OCCCCc1cc(F)cc(F)c1Oc1ncc(CS(C)(=O)=O)cc1-2` [Example A-43, 11,13-difluoro-2-methyl-17-((methylsulfonyl)methyl)-6,7,8,9-tetrahydrobenzo[11,12][1,6]dioxacyclododecino[2,3-b:4,5-c′]dipyridin-3(2H)-one], the Ki (BRD4 (BDI-BDII_K57-K550)) is reported as 3.82 nM and the EC50 [1] is reported as 10.7 nM.
`Cn1cc2c(cc1=O)OCCCCc1ccc(Cl)cc1Oc1ccc(NS(C)(=O)=O)cc1-2` [Example A-44, N-(12-chloro-2-methyl-3-oxo-2,3,6,7,8,9-hexahydrodibenzo[4,5:7,8][1,6]dioxacyclododecino[3,2-c]pyridin-17-yl)methanesulfonamide] showed a Ki (BRD4 (BDI-BDII_K57-K550)) of 1.22 nM and an EC50 [1] of 4.05 nM.
`CCS(=O)(=O)Nc1ccc2c(c1)-c1cn(C)c(=O)cc1OCCCCc1cc(C#N)ccc1O2` [Example A-45, N-(11-cyano-2-methyl-3-oxo-2,3,6,7,8,9-hexahydrodibenzo[4,5:7,8][1,6]dioxacyclododecino[3,2-c]pyridin-17-yl)ethanesulfonamide] showed a Ki (BRD4 (BDI-BDII_K57-K550)) of 1.84 nM and an EC50 [1] of 3.82 nM.
`CCS(=O)(=O)Nc1ccc2c(c1)-c1cn(C)c(=O)cc1OCCCCc1cccnc1O2` [Example A-46, N-(12-methyl-11-oxo-5,6,7,8,11,12-hexahydrobenzo[4,5][1,6]dioxacyclododecino[7,8-b:3,2-c′]dipyridin-15-yl)ethanesulfonamide] gave a Ki (BRD4 (BDI-BDII_K57-K550)) of 32.1 nM and an EC50 [1] of 50.7 nM.
In the case of `Cn1cc2c(cc1=O)OCCCCc1cc(C#N)ccc1Oc1ccc(NS(C)(=O)=O)cc1-2` [Example A-47, N-(11-cyano-2-methyl-3-oxo-2,3,6,7,8,9-hexahydrodibenzo[4,5:7,8][1,6]dioxacyclododecino[3,2-c]pyridin-17-yl)methanesulfonamide], the Ki (BRD4 (BDI-BDII_K57-K550)) is reported as 3.68 nM and the EC50 [1] is reported as 24.4 nM.
`CCS(=O)(=O)Nc1ccc2c(c1)-c1cn(C)c(=O)cc1OCCCCc1cc(F)c(F)cc1O2` [Example A-48, N-(11,12-difluoro-2-methyl-3-oxo-2,3,6,7,8,9-hexahydrodibenzo[4,5:7,8][1,6]dioxacyclododecino[3,2-c]pyridin-17-yl)ethanesulfonamide] showed a Ki (BRD4 (BDI-BDII_K57-K550)) of 1.32 nM and an EC50 [1] of 4.31 nM.
Work on `CCS(=O)(=O)Nc1ccc2c(c1)-c1cn(C)c(=O)cc1OCCCCc1cc(F)ccc1O2` [Example A-49, N-(11-fluoro-2-methyl-3-oxo-2,3,6,7,8,9-hexahydrodibenzo[4,5:7,8][1,6]dioxacyclododecino[3,2-c]pyridin-17-yl)ethanesulfonamide] yielded a Ki (BRD4 (BDI-BDII_K57-K550)) of 1.57 nM and an EC50 [1] of 3.64 nM.
`Cn1cc2c(cc1=O)OCCCCc1cc(F)ccc1Oc1ccc(NS(C)(=O)=O)cc1-2` [Example A-50, N-(11-fluoro-2-methyl-3-oxo-2,3,6,7,8,9-hexahydrodibenzo[4,5:7,8][1,6]dioxacyclododecino[3,2-c]pyridin-17-yl)methanesulfonamide] gave a Ki (BRD4 (BDI-BDII_K57-K550)) of 2.24 nM and an EC50 [1] of 3.72 nM.
With `Cn1cc2c(cc1=O)OCCCCc1cc(C(F)(F)F)ccc1Oc1ccc(NS(C)(=O)=O)cc1-2` [Example A-51, N-(2-methyl-3-oxo-11-(trifluoromethyl)-2,3,6,7,8,9-hexahydrodibenzo[4,5:7,8][1,6]dioxacyclododecino[3,2-c]pyridin-17-yl)methanesulfonamide] the Ki (BRD4 (BDI-BDII_K57-K550)) was 1.72 nM and the EC50 [1] was 14 nM.
Molecule `CCS(=O)(=O)Nc1ccc2c(c1)-c1cn(C)c(=O)cc1OCCCCc1ccc(Cl)cc1O2` [Example A-52, N-(12-chloro-2-methyl-3-oxo-2,3,6,7,8,9-hexahydrodibenzo[4,5:7,8][1,6]dioxacyclododecino[3,2-c]pyridin-17-yl)ethanesulfonamide] has a Ki (BRD4 (BDI-BDII_K57-K550)) of 0.75 nM and an EC50 [1] of 5.76 nM.
With `CCS(=O)(=O)c1ccc2c(c1)-c1nn(C)c(=O)cc1OCCCCc1cc(Cl)ccc1O2` [Example A-53, 11-chloro-17-(ethylsulfonyl)-2-methyl-6,7,8,9-tetrahydrodibenzo[4,5:7,8][1,6]dioxacyclododecino[3,2-c]pyridazin-3(2H)-one] the Ki (BRD4 (BDI-BDII_K57-K550)) was 6.32 nM and the EC50 [1] was 47.5 nM.
With `CCS(=O)(=O)c1ccc2c(c1)-c1nn(C)c(=O)cc1OCCCCc1cc(C#N)ccc1O2` [Example A-54, 17-(ethylsulfonyl)-2-methyl-3-oxo-2,3,6,7,8,9-hexahydrodibenzo[4,5:7,8][1,6]dioxacyclododecino[3,2-c]pyridazine-11-carbonitrile] the Ki (BRD4 (BDI-BDII_K57-K550)) was 19.7 nM and the EC50 [1] was 162 nM.
`CCS(=O)(=O)Nc1ccc2c(c1)-c1nn(C)c(=O)cc1OCCCCc1cc(Cl)ccc1O2` [Example A-55, N-(11-chloro-2-methyl-3-oxo-2,3,6,7,8,9-hexahydrodibenzo[4,5:7,8][1,6]dioxacyclododecino[3,2-c]pyridazin-17-yl)ethanesulfonamide] gave a Ki (BRD4 (BDI-BDII_K57-K550)) of 2.91 nM and an EC50 [1] of 14.2 nM.
`CCS(=O)(=O)Nc1ccc2c(c1)-c1nn(C)c(=O)cc1OCCCCc1cc(C#N)ccc1O2` [Example A-56, N-(11-cyano-2-methyl-3-oxo-2,3,6,7,8,9-hexahydrodibenzo[4,5:7,8][1,6]dioxacyclododecino[3,2-c]pyridazin-17-yl)ethanesulfonamide] was tested, and the Ki (BRD4 (BDI-BDII_K57-K550)) was 3.99 nM and the EC50 [1] was 16.9 nM.
Work on `CCS(=O)(=O)c1ccc2c(c1)-c1nn(C)c(=O)cc1OCCCCc1cc(F)cc(F)c1O2` [Example A-57, 17-(ethylsulfonyl)-11,13-difluoro-2-methyl-6,7,8,9-tetrahydrodibenzo[4,5:7,8][1,6]dioxacyclododecino[3,2-c]pyridazin-3(2H)-one] yielded a Ki (BRD4 (BDI-BDII_K57-K550)) of 8.44 nM and an EC50 [1] of 53.1 nM.
With `CCS(=O)(=O)Nc1ccc2c(c1)-c1nn(C)c(=O)cc1OCCCCc1cc(F)cc(F)c1O2` [Example A-58, N-(11,13-difluoro-2-methyl-3-oxo-2,3,6,7,8,9-hexahydrodibenzo[4,5:7,8][1,6]dioxacyclododecino[3,2-c]pyridazin-17-yl)ethanesulfonamide] the Ki (BRD4 (BDI-BDII_K57-K550)) was 2.01 nM and the EC50 [1] was 18.4 nM.
`CCS(=O)(=O)c1ccc2c(c1)-c1nn(C)c(=O)cc1OCCCCc1ccncc1O2` [Example A-59, 17-(ethylsulfonyl)-2-methyl-6,7,8,9-tetrahydrobenzo[4,5]pyrido[3′,4′:7,8][1,6]dioxacyclododecino[3,2-c]pyridazin-3(2H)-one] was tested, and the Ki (BRD4 (BDI-BDII_K57-K550)) was 24.2 nM and the EC50 [1] was 111 nM.
Molecule `CCS(=O)(=O)c1ccc2c(c1)-c1cn(C)c(=O)cc1OCCCCc1cccc(C)c1O2` [Example A-60, 17-(ethylsulfonyl)-2,13-dimethyl-6,7,8,9-tetrahydrodibenzo[4,5:7,8][1,6]dioxacyclododecino[3,2-c]pyridin-3(2H)-one] has a Ki (BRD4 (BDI-BDII_K57-K550)) of 5.8 nM and an EC50 [1] of 1.16 nM.
`CC(=O)Nc1ccc2c(c1)-c1cn(C)c(=O)cc1OCCN(C(C)=O)Cc1cc(Cl)ccc1O2` [Example B-2, N-(8-acetyl-11-chloro-2-methyl-3-oxo-2,3,6,7,8,9-hexahydrodibenzo[f,i]pyrido[3,4-k][1,8,4]dioxazacyclododecin-17-yl)acetamide] gave a Ki (BRD4 (BDI-BDII_K57-K550)) of 15.6 nM and an EC50 [1] of 142 nM.
Work on `Cn1cc2c(cc1=O)OCCNC(=O)c1cc(Cl)ccc1Oc1ccc(N)cc1-2` [Example B-3, 17-amino-11-chloro-2-methyl-7,8-dihydrodibenzo[f,i]pyrido[3,4-k][1,8,4]dioxazacyclododecine-3,9(2H,6H)-dione] yielded a Ki (BRD4 (BDI-BDII_K57-K550)) of 172 nM and an EC50 [1] greater than 1000 nM.

From patent US9994581B2, “Bromodomain inhibitors” (AbbVie Inc., priority 2013, dated 2018)
